Data reported in patent EP0684822B1, “CARBOCYCLIC DEOXYGUANOSINE ANALOGS FOR THE TREATMENT OF VIRAL INFECTIONS” (SOUTHERN RESEARCH INSTITUTE, priority 1993, dated 1994).

Experiments:
DNA polymerase γ = target: T1, DNA polymerase γ (Homo sapiens, UniProt P54098); test: Inhibition of [3H]dGTP incorporation into DNA by DNA polymerase γ; type: biochemical; details: incorporation of 1 µM [3H]dGTP into DNA
T1 sequence (P54098 26-1239): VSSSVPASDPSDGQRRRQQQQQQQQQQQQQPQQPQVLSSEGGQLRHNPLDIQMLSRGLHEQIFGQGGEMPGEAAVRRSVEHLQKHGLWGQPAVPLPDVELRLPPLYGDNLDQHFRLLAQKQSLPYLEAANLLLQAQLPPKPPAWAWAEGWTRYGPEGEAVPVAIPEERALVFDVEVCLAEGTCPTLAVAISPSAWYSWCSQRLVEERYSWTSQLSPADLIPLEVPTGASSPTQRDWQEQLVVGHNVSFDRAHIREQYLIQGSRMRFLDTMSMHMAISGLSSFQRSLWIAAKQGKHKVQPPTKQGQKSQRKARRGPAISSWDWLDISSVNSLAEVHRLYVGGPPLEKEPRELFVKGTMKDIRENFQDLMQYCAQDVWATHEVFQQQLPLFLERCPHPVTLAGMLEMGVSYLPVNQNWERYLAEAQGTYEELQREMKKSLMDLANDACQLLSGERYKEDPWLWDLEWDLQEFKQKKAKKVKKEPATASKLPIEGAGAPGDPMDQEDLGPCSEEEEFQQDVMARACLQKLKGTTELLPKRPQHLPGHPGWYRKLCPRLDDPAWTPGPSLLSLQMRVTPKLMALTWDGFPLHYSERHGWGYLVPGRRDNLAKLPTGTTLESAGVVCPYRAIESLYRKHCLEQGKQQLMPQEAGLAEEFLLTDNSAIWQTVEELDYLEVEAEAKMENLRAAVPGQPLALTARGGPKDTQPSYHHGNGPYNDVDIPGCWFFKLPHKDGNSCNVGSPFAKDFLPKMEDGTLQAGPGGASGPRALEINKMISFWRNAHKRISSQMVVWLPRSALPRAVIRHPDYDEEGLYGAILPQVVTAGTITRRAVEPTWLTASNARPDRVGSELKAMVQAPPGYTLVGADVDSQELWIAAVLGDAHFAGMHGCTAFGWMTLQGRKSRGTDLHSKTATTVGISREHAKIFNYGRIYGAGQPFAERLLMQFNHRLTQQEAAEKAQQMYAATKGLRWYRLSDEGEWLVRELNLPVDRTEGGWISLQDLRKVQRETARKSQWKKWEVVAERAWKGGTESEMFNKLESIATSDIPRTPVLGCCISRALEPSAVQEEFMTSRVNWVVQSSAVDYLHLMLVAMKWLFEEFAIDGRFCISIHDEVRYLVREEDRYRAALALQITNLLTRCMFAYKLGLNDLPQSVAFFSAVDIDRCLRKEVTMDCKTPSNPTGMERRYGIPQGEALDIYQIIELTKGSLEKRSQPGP
T1 sequence (Q9UHN1 26-485 partner): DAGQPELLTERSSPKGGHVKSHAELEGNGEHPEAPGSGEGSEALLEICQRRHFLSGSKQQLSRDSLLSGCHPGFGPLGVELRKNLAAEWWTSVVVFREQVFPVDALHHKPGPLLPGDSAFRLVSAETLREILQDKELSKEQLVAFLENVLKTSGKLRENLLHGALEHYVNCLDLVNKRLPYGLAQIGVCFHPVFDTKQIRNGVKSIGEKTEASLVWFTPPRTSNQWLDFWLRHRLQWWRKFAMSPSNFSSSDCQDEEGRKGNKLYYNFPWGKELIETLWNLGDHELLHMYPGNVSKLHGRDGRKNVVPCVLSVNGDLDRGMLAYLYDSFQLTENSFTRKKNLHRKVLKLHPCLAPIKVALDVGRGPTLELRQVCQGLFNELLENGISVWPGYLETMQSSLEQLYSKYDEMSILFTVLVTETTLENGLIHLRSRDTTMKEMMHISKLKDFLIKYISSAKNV
Experimental: (§1) HSV DNA polymerase was purified from H.Ep.-2 cells infected with HSV-1. Approximately 4 x 10^8 cells were infected with virus at a multiplicity of infection of 10 CCID50/cell. After a 1 hr adsorption period, the unattached virus was waxhed from the cells and the cultures were returned to the incubator at 37°C for another 8 hr. The cells were collected by centrifugation and mixed with a 0.3 M potassium phosphate buffer, pH 7.5, containing 0.3% Triton X-100 and 10% glycerol. The HSV DNA polymerase was purified approximately 288-fold from this crude extract, as described by Derse et al. (J. Biol. Chem. 257:10251, 1982). The specific activity of the HSV DNA polymerase was 4140 units/mg protein. […] HSV DNA polymerase activity was measured in 50 µl volumes containing 50 mM Tris, pH 8.0, 3 mM MgCl2, 0.5 mM dithiothreitol, 0.2 mg/ml bovine serum albumin, 0.2 M KCl, 12.5 µg/ml gapped DNA, 10 µM [^3H]dGTP (12 Ci/mmol), and 100 µM each of dATP, dCTP, and TTP. DNA polymerase α activity was measured in 50 µl volumes containing 50 mM Tris, pH 8.0, 1 mg/ml bovine serum albumin, 10 mM MgCl2, 1 mM dithiothreitol, 100 µg/ml gapped duplex DNA, 10 µM [^3H]dGTP (1 Ci/mmol), and 50 µM of each dATP, dCTP and TTP. DNA polymerase β and γ activities were measured as described for DNA polymerase α, except that the reactions included 100 mM KCl. […]

HSV DNA polymerase = target: T2, HSV DNA polymerase (Human herpesvirus 1, UniProt P04293); test: Inhibition of [3H]dGTP incorporation into DNA by purified HSV DNA polymerase; type: biochemical, HSV-1; details: for IC50: incorporation of 1 µM [3H]dGTP into DNA
T2 construct: HSV DNA polymerase was purified from H.Ep.-2 cells infected with HSV-1; made in house; host or cells: H.Ep.-2 cells infected with HSV-1
Experimental: (§2) HSV DNA polymerase was purified from H.Ep.-2 cells infected with HSV-1. Approximately 4 x 10^8 cells were infected with virus at a multiplicity of infection of 10 CCID50/cell. After a 1 hr adsorption period, the unattached virus was waxhed from the cells and the cultures were returned to the incubator at 37°C for another 8 hr. The cells were collected by centrifugation and mixed with a 0.3 M potassium phosphate buffer, pH 7.5, containing 0.3% Triton X-100 and 10% glycerol. The HSV DNA polymerase was purified approximately 288-fold from this crude extract, as described by Derse et al. (J. Biol. Chem. 257:10251, 1982). The specific activity of the HSV DNA polymerase was 4140 units/mg protein. Human DNA polymerases, a, β, and γ, were purified from 5.0 ml of packed K562 cells grown in cell culture as previously described (Parker et al., J. Biol. Chem. 266:1754, 1991). The specific activities of DNA polymerases α, β, and γ used in these studies were approximately 34, 1600, and 8 units/mg protein, respectively. One unit of enzyme activity is defined as the amount of enzyme needed to incorporate 1 nmol of [^3H]dGTP into acid-precipitable material per hour at 37°C, using gapped DNA as a template. HSV DNA polymerase activity was measured in 50 µl volumes containing 50 mM Tris, pH 8.0, 3 mM MgCl2, 0.5 mM dithiothreitol, 0.2 mg/ml bovine serum albumin, 0.2 M KCl, 12.5 µg/ml gapped DNA, 10 µM [^3H]dGTP (12 Ci/mmol), and 100 µM each of dATP, dCTP, and TTP. DNA polymerase α activity was measured in 50 µl volumes containing 50 mM Tris, pH 8.0, 1 mg/ml bovine serum albumin, 10 mM MgCl2, 1 mM dithiothreitol, 100 µg/ml gapped duplex DNA, 10 µM [^3H]dGTP (1 Ci/mmol), and 50 µM of each dATP, dCTP and TTP. DNA polymerase β and γ activities were measured as described for DNA polymerase α, except that the reactions included 100 mM KCl. After incubation for the desired time, the DNA in each sample was precipitated onto glass fiber filters using a 5% trichloroacetic acid solution containing 10 mM pyrophosphate. The filters were then washed three times with this solution followed by two washes with 95% ethanol, dried, and counted for radioactivity.
(§3) 2'CdG-TP was a potent competitive inhibitor of the incorporation of [^3H]dGTP into DNA by both the HSV DNA polymerase and the host DNA polymerase α (Fig. 9).
(§4) Under similar incubation conditions, the concentration of D-2'CdG-TP required to inhibit the incorporation of 1 µM [^3H]dGTP into the DNA by 50% was 2 µM with DNA polymerase a, but was 2200 and 300 µM for DNA polymerase β and γ, respectively (Table 4). […]

DNA polymerase α = target: T3, DNA polymerase α (Homo sapiens, UniProt P09884); test: Inhibition of [3H]dGTP incorporation into DNA by host DNA polymerase α; type: biochemical; details: for IC50: incorporation of 1 µM [3H]dGTP into DNA
T3 construct: Human DNA polymerases, a, β, and γ, were purified from 5.0 ml of packed K562 cells; endogenous in cells; host or cells: K562 cells
Experimental: as §2, §3, §4

DNA polymerase β = target: T4, DNA polymerase β (Homo sapiens, UniProt P06746); test: Inhibition of [3H]dGTP incorporation into DNA by DNA polymerase β; type: biochemical; details: incorporation of 1 µM [3H]dGTP into DNA
T4 construct: Human DNA polymerases, a, β, and γ, were purified from 5.0 ml of packed K562 cells; endogenous in cells; host or cells: K562 cells
Experimental: as §1

T3 sequence (P09884 whole entry): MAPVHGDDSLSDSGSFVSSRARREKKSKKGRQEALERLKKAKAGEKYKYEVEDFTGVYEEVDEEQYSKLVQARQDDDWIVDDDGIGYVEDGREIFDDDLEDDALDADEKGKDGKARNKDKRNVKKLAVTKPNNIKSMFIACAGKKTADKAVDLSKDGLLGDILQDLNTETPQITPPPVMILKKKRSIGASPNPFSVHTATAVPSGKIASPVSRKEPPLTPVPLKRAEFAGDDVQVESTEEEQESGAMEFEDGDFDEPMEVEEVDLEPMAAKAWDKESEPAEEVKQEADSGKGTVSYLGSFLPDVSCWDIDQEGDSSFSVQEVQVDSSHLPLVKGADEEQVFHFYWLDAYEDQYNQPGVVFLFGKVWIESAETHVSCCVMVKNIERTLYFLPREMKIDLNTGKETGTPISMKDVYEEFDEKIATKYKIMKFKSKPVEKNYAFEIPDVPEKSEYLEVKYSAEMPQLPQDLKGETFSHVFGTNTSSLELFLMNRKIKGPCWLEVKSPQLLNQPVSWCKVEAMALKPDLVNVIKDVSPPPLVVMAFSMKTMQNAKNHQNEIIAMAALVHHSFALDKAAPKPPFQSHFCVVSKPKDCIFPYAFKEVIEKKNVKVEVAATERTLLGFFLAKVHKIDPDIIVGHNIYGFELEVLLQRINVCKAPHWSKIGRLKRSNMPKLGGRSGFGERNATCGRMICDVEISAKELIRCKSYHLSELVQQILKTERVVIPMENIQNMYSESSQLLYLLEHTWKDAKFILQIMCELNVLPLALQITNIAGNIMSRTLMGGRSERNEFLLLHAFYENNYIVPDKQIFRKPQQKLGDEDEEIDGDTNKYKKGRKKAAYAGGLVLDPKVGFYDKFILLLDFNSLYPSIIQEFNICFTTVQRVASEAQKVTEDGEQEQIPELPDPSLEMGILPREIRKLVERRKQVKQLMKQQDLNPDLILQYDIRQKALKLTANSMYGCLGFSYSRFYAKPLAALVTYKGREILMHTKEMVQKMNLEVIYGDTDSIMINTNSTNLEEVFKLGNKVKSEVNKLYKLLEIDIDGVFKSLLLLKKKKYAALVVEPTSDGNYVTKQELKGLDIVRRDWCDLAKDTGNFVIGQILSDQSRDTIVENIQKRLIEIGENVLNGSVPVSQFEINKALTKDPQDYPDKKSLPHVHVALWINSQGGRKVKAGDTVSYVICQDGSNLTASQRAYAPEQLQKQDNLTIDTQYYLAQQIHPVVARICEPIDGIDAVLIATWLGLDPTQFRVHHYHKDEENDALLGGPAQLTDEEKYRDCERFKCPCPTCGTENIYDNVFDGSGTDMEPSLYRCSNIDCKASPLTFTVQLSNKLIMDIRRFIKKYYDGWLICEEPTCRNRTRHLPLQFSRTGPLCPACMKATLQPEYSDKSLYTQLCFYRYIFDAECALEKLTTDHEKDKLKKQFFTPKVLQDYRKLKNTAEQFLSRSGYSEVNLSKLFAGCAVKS
T3 sequence (Q14181 whole entry partner): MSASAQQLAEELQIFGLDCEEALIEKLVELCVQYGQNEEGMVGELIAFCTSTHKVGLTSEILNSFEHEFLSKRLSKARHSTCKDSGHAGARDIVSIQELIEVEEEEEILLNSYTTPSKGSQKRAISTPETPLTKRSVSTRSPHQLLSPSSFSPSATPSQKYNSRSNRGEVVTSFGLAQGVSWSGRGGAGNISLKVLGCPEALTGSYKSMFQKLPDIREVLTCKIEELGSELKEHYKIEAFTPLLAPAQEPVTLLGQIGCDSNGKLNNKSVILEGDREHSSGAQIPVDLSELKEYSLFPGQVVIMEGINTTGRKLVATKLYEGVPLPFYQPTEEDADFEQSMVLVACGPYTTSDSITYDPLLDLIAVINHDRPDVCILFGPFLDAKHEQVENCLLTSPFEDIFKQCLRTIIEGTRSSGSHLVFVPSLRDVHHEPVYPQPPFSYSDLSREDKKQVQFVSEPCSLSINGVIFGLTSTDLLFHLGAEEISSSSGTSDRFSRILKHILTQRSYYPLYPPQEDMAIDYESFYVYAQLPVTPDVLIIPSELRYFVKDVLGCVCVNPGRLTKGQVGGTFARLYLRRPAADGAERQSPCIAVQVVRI
T3 sequence (P49642 whole entry partner): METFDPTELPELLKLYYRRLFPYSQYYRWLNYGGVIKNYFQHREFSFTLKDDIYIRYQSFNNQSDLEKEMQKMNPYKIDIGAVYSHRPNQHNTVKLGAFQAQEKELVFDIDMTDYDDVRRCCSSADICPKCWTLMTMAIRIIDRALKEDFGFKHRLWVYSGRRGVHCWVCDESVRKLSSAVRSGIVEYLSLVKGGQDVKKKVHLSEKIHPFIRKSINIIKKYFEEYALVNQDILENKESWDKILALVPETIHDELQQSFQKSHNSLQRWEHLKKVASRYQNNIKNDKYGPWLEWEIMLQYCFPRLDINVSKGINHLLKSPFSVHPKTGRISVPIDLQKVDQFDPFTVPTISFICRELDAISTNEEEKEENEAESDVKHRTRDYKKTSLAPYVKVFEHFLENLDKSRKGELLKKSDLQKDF
T3 sequence (P49643 whole entry partner): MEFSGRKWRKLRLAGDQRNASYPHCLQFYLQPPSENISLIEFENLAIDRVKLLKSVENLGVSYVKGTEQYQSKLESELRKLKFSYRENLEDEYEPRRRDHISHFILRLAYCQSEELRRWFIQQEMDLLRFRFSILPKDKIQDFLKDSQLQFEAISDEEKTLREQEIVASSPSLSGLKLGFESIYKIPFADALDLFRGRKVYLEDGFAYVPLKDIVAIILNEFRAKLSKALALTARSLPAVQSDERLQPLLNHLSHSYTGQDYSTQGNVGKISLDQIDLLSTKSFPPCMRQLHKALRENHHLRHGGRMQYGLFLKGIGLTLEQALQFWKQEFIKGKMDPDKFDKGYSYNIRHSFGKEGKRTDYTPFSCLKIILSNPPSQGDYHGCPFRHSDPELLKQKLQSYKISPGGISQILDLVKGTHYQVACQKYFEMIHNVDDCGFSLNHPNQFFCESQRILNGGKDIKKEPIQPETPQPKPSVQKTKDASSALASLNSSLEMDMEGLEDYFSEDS
T2 sequence (P10226 whole entry): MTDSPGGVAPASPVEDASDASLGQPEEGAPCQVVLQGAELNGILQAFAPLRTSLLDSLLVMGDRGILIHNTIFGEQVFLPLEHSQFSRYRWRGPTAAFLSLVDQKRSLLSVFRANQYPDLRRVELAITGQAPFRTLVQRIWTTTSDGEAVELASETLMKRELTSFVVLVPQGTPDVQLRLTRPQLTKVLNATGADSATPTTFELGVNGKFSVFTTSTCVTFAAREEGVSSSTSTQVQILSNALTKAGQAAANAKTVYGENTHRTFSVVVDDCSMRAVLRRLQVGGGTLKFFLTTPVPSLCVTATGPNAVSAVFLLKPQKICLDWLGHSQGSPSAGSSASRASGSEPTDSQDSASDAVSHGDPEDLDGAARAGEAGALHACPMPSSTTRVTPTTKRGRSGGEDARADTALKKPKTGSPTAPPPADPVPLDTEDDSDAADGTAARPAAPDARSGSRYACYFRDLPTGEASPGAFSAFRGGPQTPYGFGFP
T2 sequence (P04293 whole entry): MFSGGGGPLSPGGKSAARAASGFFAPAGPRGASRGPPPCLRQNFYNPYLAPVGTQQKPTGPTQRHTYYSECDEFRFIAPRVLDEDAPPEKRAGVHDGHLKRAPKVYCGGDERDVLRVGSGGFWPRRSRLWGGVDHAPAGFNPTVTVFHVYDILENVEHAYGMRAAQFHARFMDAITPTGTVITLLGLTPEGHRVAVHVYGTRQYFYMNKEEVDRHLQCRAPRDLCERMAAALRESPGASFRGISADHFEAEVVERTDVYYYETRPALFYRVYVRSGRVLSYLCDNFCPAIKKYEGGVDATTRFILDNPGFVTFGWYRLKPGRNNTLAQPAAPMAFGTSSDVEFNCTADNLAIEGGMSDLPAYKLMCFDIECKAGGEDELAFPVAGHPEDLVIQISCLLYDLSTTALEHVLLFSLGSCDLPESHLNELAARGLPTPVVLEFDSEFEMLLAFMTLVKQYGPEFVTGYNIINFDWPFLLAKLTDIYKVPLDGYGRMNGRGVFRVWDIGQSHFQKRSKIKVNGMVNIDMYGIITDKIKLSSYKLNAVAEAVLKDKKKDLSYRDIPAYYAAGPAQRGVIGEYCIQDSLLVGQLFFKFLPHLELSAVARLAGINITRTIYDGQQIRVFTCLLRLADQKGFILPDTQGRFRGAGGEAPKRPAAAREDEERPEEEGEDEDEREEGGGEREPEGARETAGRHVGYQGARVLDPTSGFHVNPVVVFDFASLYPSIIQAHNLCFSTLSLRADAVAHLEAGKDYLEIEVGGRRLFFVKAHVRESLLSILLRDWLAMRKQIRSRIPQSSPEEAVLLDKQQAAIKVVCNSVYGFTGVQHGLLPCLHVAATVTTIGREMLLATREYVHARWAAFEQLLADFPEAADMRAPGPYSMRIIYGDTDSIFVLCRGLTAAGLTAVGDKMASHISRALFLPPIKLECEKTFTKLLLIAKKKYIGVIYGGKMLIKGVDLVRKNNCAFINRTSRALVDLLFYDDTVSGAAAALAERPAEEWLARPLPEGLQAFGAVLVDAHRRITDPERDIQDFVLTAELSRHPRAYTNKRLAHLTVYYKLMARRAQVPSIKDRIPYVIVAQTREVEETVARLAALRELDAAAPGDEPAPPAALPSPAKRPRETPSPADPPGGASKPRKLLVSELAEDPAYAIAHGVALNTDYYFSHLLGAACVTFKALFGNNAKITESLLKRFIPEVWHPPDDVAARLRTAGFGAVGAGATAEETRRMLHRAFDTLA

Structure (SMILES)	IC50 (DNA polymerase γ) [µM]	Ki/Km ratio (HSV DNA polymerase; Km of dGTP)	Ki (HSV DNA polymerase; competitive with [3H]dGTP) [µM]	IC50 (HSV DNA polymerase) [µM]	Ki/Km ratio (DNA polymerase α; Km of dGTP)	Ki (DNA polymerase α; competitive with [3H]dGTP) [µM]	IC50 (DNA polymerase α) [µM]	IC50 (DNA polymerase β) [µM]
Nc1nc2c(ncn2[C@@H]2C[C@H](COP(=O)(O)OP(=O)(O)OP(=O)(O)O)[C@@H](O)C2)c(=O)[nH]1 [D-2'CdG-TP]	300	approximately 1	0.35	1.5	approximately 1	0.95	2	–
Nc1nc2c(ncn2[C@H]2C[C@@H](COP(=O)(O)OP(=O)(O)OP(=O)(O)O)[C@H](O)C2)c(=O)[nH]1 [L-2'CdG-TP]	215	–	–	460	–	–	470	1400
